Drawing on US9840478B2 (MERCK SHARP & DOHME CORP., priority 2013, dated 2017), this text covers IC50 for 16 compounds.

For this experiment, the system named is HIV-1 (H9IIIB strain). The experiment in a line: Cell-based HIV infection assay using a reporter (Cell-Based), MT4-GFP cells. The following applies: Human immunodeficiency virus 1, MT4-GFP cells infected with HIV-1 H9IIIB; 50% normal human serum; mean of at least two independent experiments; read-out: Cell-based IP. Summed up: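 IC50 from 4-parameter dose-response of % viral growth inhibition, using the 48 h/24 h infected-cell ratio scaled between DMSO and a protease/integrase/NNRTI triple-drug control. Assay used MT4 cells with HIV-LTR-GFP reporter, pre-infected 24 h with HIV-1 H9IIIB, in 50% normal human serum.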

Take `COC(=O)N[C@H](C(=O)Nc1cccc(F)c1CC[C@H]1CNC[C@H](C)N1S(C)(=O)=O)[C@@H](Cc1ccc(F)cc1)c1ccc(Cl)cc1` [Example 233, (βS)-4-chloro-β-(4-fluorobenzyl)-N-(3-fluoro-2-{2-[(2S,6S)-6-methyl-1-(methylsulfonyl)piperazin-2-yl]ethyl}phenyl)-Nα-(methoxycarbonyl)-L-phenylalaninamide]: the IC50 was found to be 330 nM.

In the case of `COC(=O)N[C@H](C(=O)Nc1cccc(F)c1CC[C@H]1CNC[C@H](C)N1S(=O)(=O)c1ccc(OC(F)(F)F)cc1)[C@@H](c1ccc(F)cc1)c1cc(F)cc(F)c1` [Example 234, (βS)-β-(3,5-difluorophenyl)-4-fluoro-N-(3-fluoro-2-{2-[(2S,6S)-6-methyl-1-{[4-(trifluoromethoxy)phenyl]sulfonyl}piperazin-2-yl]ethyl}phenyl)-Nα-(methoxycarbonyl)-L-phenylalaninamide], the IC50 worked out at 49 nM.

For the compound `COc1ccccc1S(=O)(=O)N1[C@@H](CCc2c(F)cncc2NC(=O)[C@@H](N)[C@@H](c2ccc(F)cc2)c2cc(F)cc(F)c2)CNC[C@@H]1C` [Example 235, (βS)-β-(3,5-difluorophenyl)-4-fluoro-N-[5-fluoro-4-(2-{(2S,6S)-1-[(2-methoxyphenyl)sulfonyl]-6-methylpiperazin-2-yl}ethyl)pyridin-3-yl]-L-phenylalaninamide], the IC50 came to 23 nM.

`C[C@H]1CNC[C@H](CCc2c(F)cccc2NC(=O)[C@@H](N)[C@@H](c2ccc(Cl)cc2)c2cncc(F)c2)N1S(=O)(=O)c1ccccc1` [Example 236, (βS)-4-chloro-N-(3-fluoro-2-{2-[(2S,6S)-6-methyl-1-(phenylsulfonyl)piperazin-2-yl]ethyl}phenyl)-β-(5-fluoropyridin-3-yl)-L-phenylalaninamide]: the IC50 was found to be 8.2 nM.

As for `COC(=O)N[C@H](C(=O)Nc1cccc(F)c1CC[C@H]1CNCC(COC(C)C)N1S(=O)(=O)C1CC1)[C@@H](c1ccc(F)cc1)c1cc(F)cc(F)c1` (stereo partly drawn) [Example 237, (βS)-N-[2-(2-{(2S)-1-(cyclopropylsulfonyl)-6-[(1-methylethoxy)methyl]piperazin-2-yl}ethyl)-3-fluorophenyl]-β-(3,5-difluorophenyl)-4-fluoro-Nα-(methoxycarbonyl)-L-phenylalaninamide], the IC50 was determined as 30 nM.

Turning to `COc1ccccc1S(=O)(=O)N1[C@@H](CCc2c(F)cccc2NC(=O)[C@@H](N)[C@@H](c2ccc(F)cc2)c2cc(F)cc(F)c2)CNC[C@@H]1C` [Example 238, (βS)-β-(3,5-difluorophenyl)-4-fluoro-N-[3-fluoro-2-(2-{(2S,6S)-1-[(2-methoxyphenyl)sulfonyl]-6-methylpiperazin-2-yl}ethyl)phenyl]-L-phenylalaninamide], the IC50 amounted to 110 nM.

Consider `COc1ccccc1S(=O)(=O)N1[C@@H](CCc2c(F)cccc2NC(=O)[C@@H](N)[C@@H](c2ccc(F)cc2)c2cc(F)cc(F)c2)CNC[C@H]1C` [Example 239, (βS)-β-(3,5-difluorophenyl)-4-fluoro-N-[3-fluoro-2-(2-{(2S,6R)-1-[(2-methoxyphenyl)sulfonyl]-6-methylpiperazin-2-yl}ethyl)phenyl]-L-phenylalaninamide], for which the IC50 turned out to be 130 nM.

As for `COC(=O)N[C@H](C(=O)Nc1cccc(F)c1CC[C@H]1CNC[C@H](C)N1S(=O)(=O)c1ccccc1OC)[C@@H](c1ccc(F)cc1)c1cc(F)cc(F)c1` [Example 240, (βS)-β-(3,5-difluorophenyl)-4-fluoro-N-[3-fluoro-2-(2-{(2S,6S)-1-[(2-methoxyphenyl)sulfonyl]-6-methylpiperazin-2-yl}ethyl)phenyl]-Nα-(methoxycarbonyl)-L-phenylalaninamide], the IC50 worked out at 71 nM.

Turning to `COCC1CNC[C@H](CCc2c(F)cccc2NC(=O)[C@@H](N)[C@@H](c2ccc(F)cc2)c2cc(F)cc(F)c2)N1S(=O)(=O)C1CC1` (stereo partly drawn) [Example 241, (βS)-N-(2-{2-[(2S)-1-(cyclopropylsulfonyl)-6-(methoxymethyl)piperazin-2-yl]ethyl}-3-fluorophenyl)-β-(3,5-difluorophenyl)-4-fluoro-L-phenylalaninamide], the IC50 is 39 nM.

In the case of `CC(C)OCC1CNC[C@H](CCc2c(F)cccc2NC(=O)[C@@H](N)[C@H](c2cccc(F)c2)c2cccc(Cl)c2)N1S(C)(=O)=O` (stereo partly drawn) [Example 242, (βR)-β-(3-chlorophenyl)-3-fluoro-N-(3-fluoro-2-{2-[(2S)-6-[(1-methylethoxy)methyl]-1-(methylsulfonyl)piperazin-2-yl]ethyl}phenyl)-L-phenylalaninamide], the IC50 came to 220 nM.

In the case of `C[C@H]1CNC[C@H](CCc2c(F)cncc2NC(=O)[C@@H](N)[C@@H](c2ccc(F)cc2)c2cc(F)cc(F)c2)N1S(=O)(=O)c1ccc(OC(F)(F)F)cc1` [Example 243, (βS)-β-(3,5-difluorophenyl)-4-fluoro-N-(5-fluoro-4-{2-[(2S,6S)-6-methyl-1-{[4-(trifluoromethoxy)phenyl]sulfonyl}piperazin-2-yl]ethyl}pyridin-3-yl)-L-phenylalaninamide], the IC50 worked out at 17 nM.

For the compound `COc1ccc(S(=O)(=O)N2[C@@H](CCc3c(F)cncc3NC(=O)[C@@H](N)[C@@H](c3ccc(F)cc3)c3cc(F)cc(F)c3)CNC[C@@H]2C)cc1` [Example 244, (βS)-β-(3,5-difluorophenyl)-4-fluoro-N-[5-fluoro-4-(2-{(2S,6S)-1-[(4-methoxyphenyl)sulfonyl]-6-methylpiperazin-2-yl}ethyl)pyridin-3-yl]-L-phenylalaninamide], the IC50 came to 5.9 nM.

For the compound `C[C@H]1CNC[C@H](CCc2c(F)cncc2NC(=O)[C@@H](N)[C@@H](c2ccc(F)cc2)c2cc(F)cc(F)c2)N1S(=O)(=O)c1ccccc1Cl` [Example 245, (βS)-N-[4-(2-{(2S,6S)-1-[(2-chlorophenyl)sulfonyl]-6-methylpiperazin-2-yl}ethyl)-5-fluoropyridin-3-yl]-β-(3,5-difluorophenyl)-4-fluoro-L-phenylalaninamide], the IC50 stood at 51 nM.

On to `COC(=O)N[C@H](C(=O)Nc1cncc(F)c1CC[C@H]1CNC[C@H](C)N1S(=O)(=O)c1ccc(OC)cc1)[C@@H](c1ccc(F)cc1)c1cc(F)cc(F)c1` [Example 246, (βS)-β-(3,5-difluorophenyl)-4-fluoro-N-[5-fluoro-4-(2-{(2S,6S)-1-[(4-methoxyphenyl)sulfonyl]-6-methylpiperazin-2-yl}ethyl)pyridin-3-yl]-Nα-(methoxycarbonyl)-L-phenylalaninamide], for which the IC50 was found to be 5.9 nM.

With `COC(=O)N[C@H](C(=O)Nc1cncc(F)c1CC[C@H]1CNC[C@@H](C)N1S(=O)(=O)c1ccc(OC(F)(F)F)cc1)[C@@H](c1ccc(F)cc1)c1cc(F)cc(F)c1` [Example 247, (βS)-β-(3,5-difluorophenyl)-4-fluoro-N-(5-fluoro-4-{2-[(2S,6R)-6-methyl-1-{[4-(trifluoromethoxy)phenyl]sulfonyl}piperazin-2-yl]ethyl}pyridin-3-yl)-Nα-(methoxycarbonyl)-L-phenylalaninamide], the IC50 was 77 nM.

In the case of `COC(=O)N[C@H](C(=O)Nc1cccc(F)c1CC[C@H]1CNC[C@@H](C)N1S(=O)(=O)c1ccc(OC(F)(F)F)cc1)[C@@H](c1ccc(F)cc1)c1cc(F)cc(F)c1` [Example 248, (βS)-β-(3,5-difluorophenyl)-4-fluoro-N-(3-fluoro-2-{2-[(2S,6R)-6-methyl-1-{[4-(trifluoromethoxy)phenyl]sulfonyl}piperazin-2-yl]ethyl}phenyl)-Nα-(methoxycarbonyl)-L-phenylalaninamide], the IC50 was 45 nM.
